We go through two compounds from paper PMC6651387, “Fine-Tuning the Activation Mode of an 1,3-Indandione-Based Ruthenium(II)-Cymene Half-Sandwich Complex by Variation of Its Leaving Group” (Molecules, 2019).

Where two headings read alike, the source gives them in different places.

Series [1] has as its system HCT116 (colon cancer) cells. Briefly: MTT antiproliferative assay, HCT116. The class given is cell-based, human. Particulars: exposure time 96 h, means ± standard deviations. The method, then:
(§1) CH1/PA-1 (ovarian teratocarcinoma) cells were a generous gift from Lloyd R. Kelland (CRC Centre for Cancer Therapeutics, Institute of Cancer Research, Sutton, UK). A549 (non-small cell lung cancer), SW480, and HCT116 (both colon cancer) cells were kindly provided by the Institute of Cancer Research, Department of Medicine I, Medical University of Vienna, Austria. All cell lines were grown as monolayer cultures in Eagle’s MEM supplemented with L-glutamine (4 mM), sodium pyruvate (1 mM) and 1% (v/v) non-essential amino acid solution (all from Sigma-Aldrich) and 10% (v/v) heat-inactivated fetal calf serum (FCS, BioWest) in 75-cm^2 flasks (Starlab) at 37 °C under a humidified atmosphere containing 5% CO2 in air. […] After 24 h, test compounds were dissolved in DMSO (Fisher Scientific), serially diluted in complete MEM not to exceed a final DMSO content of 0.5% (v/v) and added in 100 μL per well. After 96 h, the drug-containing medium was replaced with 100 µL of RPMI 1640/MTT mixture, i. e., 6 parts of RPMI 1640 medium (Sigma-Aldrich; supplemented with 10% heat-inactivated fetal bovine serum and 4 mM L-glutamine), 1 part of MTT solution in phosphate-buffered saline (5 mg/mL; both from Sigma-Aldrich). After incubation for 4 h, the MTT-containing medium was replaced with 150 μL DMSO per well to dissolve the formazan product formed by viable cells. Optical densities at 550 nm (and at the reference wavelength of 690 nm) were measured with a microplate reader (ELx808, Bio-Tek). The IC50 values relative to untreated controls were interpolated from concentration–effect curves. At least three independent experiments were performed, each with triplicates per concentration level.
(In general: Formazan colour is commonly taken as a measure of viable cells.)

Series [2] has as its system SW480 cells. Briefly: Cellular accumulation by ICP-MS quantification of ruthenium (or platinum). It is filed as cell-based, human. Particulars: 50 µM, exposure time 2 h, ICP-MS of ruthenium. The method, then:
Ruthenium accumulation was measured by means of inductively coupled plasma mass spectrometry (ICP-MS) upon 2 h exposure of SW480 cells to 50 µM of each compound.
Cellular accumulation of the compounds was studied based on a previously described method with modifications as follows: SW480 cells with a number of 1.8 × 10^5 per well were seeded into 12-well plates in aliquots of 1 mL complete MEM and incubated at 37 °C for 24 h. Then, cells were exposed for 2 h at 37 °C to 50 μM solutions of the test compounds (containing 0.5% DMSO) in 500 µL of fresh complete MEM upon exchange of the medium. Afterwards, cells were washed three times with PBS, and lyzed with 0.4 mL sub-boiled HNO3 per well for 1 h at room temperature. Ruthenium content was quantified by ICP-MS using an Agilent 7500ce quadrupole ICP-MS instrument (Agilent Technologies, Waldbronn, Germany) equipped with a CETAC ASX-520 autosampler (Nebraska, USA) and a MicroMist nebulizer. Ruthenium and indium standards were obtained from CPI International (Amsterdam, The Netherlands). The instrument was equipped with nickel cones and operated at an RF power of 1560 W, with argon as the plasma gas (15 L/min), carrier gas (1.0–1.1 L/min) and make-up gas (0.1–0.2 L/min). The Agilent MassHunter software package (Workstation Software, Version B.01.01, Build 123.11, Patch 4, 2012) was used for data processing. Results are based on at least three independent experiments, each comprising triplicate samples. The instrument was tuned on a daily basis for maximum sensitivity and doubly charged species as well as oxide rates were <5%.

A short description of series [3]: Lipophilicity by RP-UHPLC capacity factors (logkw, Φ0). It is filed as physicochemical. An excerpt: It stands to reason that the higher the lipophilicity, the higher the cell accumulation; as far as passive diffusion is concerned, the higher efficiency with which normal cell function is compromised. As a consequence, lipophilicity is an important factor in drug development, described by the partition coefficient logP, which is routinely determined by the distribution of a compound in 1-octanol/water. However, 1-octanol, a solvent said to closely mimic the solubilizing behavior of cell membranes, forms emulsions with water. Additionally, the shake-flask method, seemingly easy, requires long sample preparation, has a low sample throughput, and lacks reproducibility, as it hinges on exact temperature control and consistent equilibration time allotted for every analyte. The time-consuming nature of this method may also lead to decomposition of the analyte. A concentration-, flow rate-, and column length-independent method is the determination of the capacity factor (k) via HPLC. The capacity factor is a measure for the equilibrium concentration between a polar phase (eluent) and an apolar phase (C18 column coating) and higher resemblance to the partition coefficient in […]. […] The percentage of methanol in the eluent at which logk is equal to zero is Φ0 [27, 28, 29].
The capacity factors k were determined with the use of an RP-UHPLC. The necessary chromatograms were recorded with a Dionex UltiMate 3000 RS UHPLC system (Thermo Fisher Scientific, Bedford, MA, USA) controlled by the Dionex Chromeleon 7.2 software. […] The capacity factors were then calculated as logk = log[(tR − t0)/t0], where tR and t0 are the retention times of the analyte and the dead time marker, respectively, at the respective MeOH:0.1% FA in water ratio. Every retention time was determined in isocratic mode for the different eluent ratios to obtain capacity factors in the linear range (−0.5 ≤ logk ≤ 1.5) in triplicate. A plot of logk against the % of the organic eluent yielded logkw (intercept) and S (slope). Φ0, the factor most closely resembling logP, was then determined as follows: Φ0 = −logkw/S [28].

Series [4] deals with CH1/PA-1 (ovarian teratocarcinoma) cells. The series is described as follows: MTT antiproliferative assay, CH1/PA-1. The class given is cell-based, human. Particulars: exposure time 96 h, means ± standard deviations. The method, then: CH1/PA-1 (ovarian teratocarcinoma) cells were a generous gift from Lloyd R. Kelland (CRC Centre for Cancer Therapeutics, Institute of Cancer Research, Sutton, UK). A549 (non-small cell lung cancer), SW480, and HCT116 (both colon cancer) cells were kindly provided by the Institute of Cancer Research, Department of Medicine I, Medical University of Vienna, Austria. All cell lines were grown as monolayer cultures in Eagle’s MEM supplemented with L-glutamine (4 mM), sodium pyruvate (1 mM) and 1% (v/v) non-essential amino acid solution (all from Sigma-Aldrich) and 10% (v/v) heat-inactivated fetal calf serum (FCS, BioWest) in 75-cm^2 flasks (Starlab) at 37 °C under a humidified atmosphere containing 5% CO2 in air.
Antiproliferative activity of the compounds was determined with the colorimetric MTT assay (MTT = 3-(4,5-dimethyl-2-thiazolyl)-2,5-diphenyl-2H-tetrazolium bromide). CH1/PA-1, HCT116, SW480, and A549 cells with cell numbers of 1 × 10^3, 1.5 × 10^3, 2 × 10^3, and 3 × 10^3, respectively, were seeded in 100 μL per well into 96-well microculture plates (Starlab). After 24 h, test compounds were dissolved in DMSO (Fisher Scientific), serially diluted in complete MEM not to exceed a final DMSO content of 0.5% (v/v) and added in 100 μL per well. After 96 h, the drug-containing medium was replaced with 100 µL of RPMI 1640/MTT mixture, i. e., 6 parts of RPMI 1640 medium (Sigma-Aldrich; supplemented with 10% heat-inactivated fetal bovine serum and 4 mM L-glutamine), 1 part of MTT solution in phosphate-buffered saline (5 mg/mL; both from Sigma-Aldrich). After incubation for 4 h, the MTT-containing medium was replaced with 150 μL DMSO per well to dissolve the formazan product formed by viable cells. Optical densities at 550 nm (and at the reference wavelength of 690 nm) were measured with a microplate reader (ELx808, Bio-Tek). The IC50 values relative to untreated controls were interpolated from concentration–effect curves. At least three independent experiments were performed, each with triplicates per concentration level.

Series [5] concerns A549 (non-small cell lung cancer) cells. Briefly: MTT antiproliferative assay, A549. It is filed as cell-based, human. Particulars: exposure time 96 h, means ± standard deviations. The method, then: as §1
For series [6] the following is noted: MeOH, conventional desk lamp, UV-VIS 250–700 nm.
Description: Light activation studies were performed on the same UV-VIS spectrometer. Fourty microliters of solutions (MeOH) were irradiated with a conventional desk lamp, and every 2.5–10 min (depending on progress) a wavelength scan (250–700 nm) was recorded.
Series [7] concerns SW480 (colon cancer) cells. Briefly: MTT antiproliferative assay, SW480. The class given is cell-based, human. Particulars: exposure time 96 h, means ± standard deviations. The method, then: as §1
For series [8], the system named is CH1/PA-1 (ovarian teratocarcinoma) cells. On the set-up: method as in PMID 25032896. Particulars: MTT assay, 96 h; cited from earlier work.
For series [9], the system named is SW480 (colon cancer) cells. On the set-up: method as in PMID 25032896. Particulars: MTT assay, 96 h; cited from earlier work.
The subject of series [10] is SW480 cells. On the set-up: method as in PMID 27055943. Particulars: exposure time 2 h, platinum; cited from earlier work.
Series [11] deals with A549 (non-small cell lung cancer) cells. On the set-up: method as in PMID 25032896. Particulars: MTT assay, 96 h; cited from earlier work.

For orientation: IC50 means the concentration that gives 50% inhibition. Turning to `Cc1ccc(C(C)C)cc1.F[P-](F)(F)(F)(F)F.O=C1C(=C(NCc2ccccc2)[O][Ru+])C(=O)c2ccccc21.c1ccncc1` [1f], the IC50 in series [1] is 20.2 ± 6.4 µM; in [4] it was 8.2 ± 2 µM; in series [5], 22.1 ± 3.2 µM; in series [7], 6.3 ± 1.1 µM. For the same compound, the “cellular accumulation, fg Ru or Pt/Cell” value in the series with SW480 cells [2] was 231 ± 93 fg Ru or Pt/Cell. The Intercept logkw in series [3] (RP-UHPLC, MeOH/0.1% formic acid in water, 25 °C, logk extrapolated to 100% water) is 5.25. Moreover, in series [3] (percentage of methanol in the eluent at which logk is zero, Φ0 = −logkw/S), the Φ0 amounted to 62.07. Further, in [3] (slope of logk against % organic eluent (MeOH)), the “Slope S” value is listed as −0.0845. In series [6], the “time until no more change upon light irradiation (completion of the reaction)” value stood at 75 min.
With `N.N.[Cl][Pt][Cl]` [Cisplatin], the values for the IC50 in series [8], in series [9] and in [11] were 0.077 ± 0.006 µM, 3.3 ± 0.2 µM and 6.2 ± 1.2 µM, respectively. Besides, in the series with SW480 cells [10], the “cellular accumulation, fg Ru or Pt/Cell” value is on record as 12 ± 2 fg Ru or Pt/Cell.
